Results reported in patent publication US8003660B2, “Modulators of muscarinic receptors” (Vertex Pharmaceuticals Incorporated, priority 2006, dated 2011).
Read-outs that look alike come from different tables or passages of the source.

How the values were obtained:
Assay type in all cases: cell-based
M4 muscarinic receptor = target: T1, M4 muscarinic receptor (Homo sapiens, UniProt P08173); experiment: Functional mobilization of intracellular calcium (FLIPR) in CHO cells expressing M4; settings: for EC50: CHO cells expressing M4, FLIPR calcium; for Emax: CHO; for M4 Activity: CHO cells expressing M4, FLIPR calcium assay
T1 construct: expressed in transfected cells; host or cells: CHO (M4-CHO)
T1 sequence (P08173 1-479): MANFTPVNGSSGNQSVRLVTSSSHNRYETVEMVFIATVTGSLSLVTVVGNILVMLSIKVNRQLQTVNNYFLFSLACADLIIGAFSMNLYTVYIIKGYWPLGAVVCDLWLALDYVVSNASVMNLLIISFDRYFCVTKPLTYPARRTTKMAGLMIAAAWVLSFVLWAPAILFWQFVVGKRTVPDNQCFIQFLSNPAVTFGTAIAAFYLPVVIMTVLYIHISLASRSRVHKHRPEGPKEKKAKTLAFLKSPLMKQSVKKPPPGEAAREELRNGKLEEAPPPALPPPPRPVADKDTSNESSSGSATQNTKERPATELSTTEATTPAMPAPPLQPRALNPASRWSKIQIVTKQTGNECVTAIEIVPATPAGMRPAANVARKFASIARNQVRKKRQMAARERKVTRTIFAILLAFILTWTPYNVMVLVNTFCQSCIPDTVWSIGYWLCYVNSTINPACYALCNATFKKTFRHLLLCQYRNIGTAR
Procedure, shortened: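 Read-out: FLIPR fluorescence (ex 488, em 540 nm) over 60 s. Recombinant CHO lines are dye-loaded (Fluo-3 AM or Calcium 3) with 1 mM probenecid. For antagonist mode, compound is pre-incubated 15 min, or co-applied, then carbachol is added at 3× EC80 per subtype.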

M2 muscarinic receptor = target: T2, M2 muscarinic receptor (Homo sapiens, UniProt P08172); experiment: Functional mobilization of intracellular calcium (FLIPR) in CHO cells expressing M2; settings: for EC50: CHO cells expressing M2, FLIPR calcium; for Emax: CHO; for M2 Activity: CHO cells expressing M2, FLIPR calcium assay
T2 construct: expressed in transfected cells; host or cells: CHO (M2-CHO)
T2 sequence (P08172 1-466): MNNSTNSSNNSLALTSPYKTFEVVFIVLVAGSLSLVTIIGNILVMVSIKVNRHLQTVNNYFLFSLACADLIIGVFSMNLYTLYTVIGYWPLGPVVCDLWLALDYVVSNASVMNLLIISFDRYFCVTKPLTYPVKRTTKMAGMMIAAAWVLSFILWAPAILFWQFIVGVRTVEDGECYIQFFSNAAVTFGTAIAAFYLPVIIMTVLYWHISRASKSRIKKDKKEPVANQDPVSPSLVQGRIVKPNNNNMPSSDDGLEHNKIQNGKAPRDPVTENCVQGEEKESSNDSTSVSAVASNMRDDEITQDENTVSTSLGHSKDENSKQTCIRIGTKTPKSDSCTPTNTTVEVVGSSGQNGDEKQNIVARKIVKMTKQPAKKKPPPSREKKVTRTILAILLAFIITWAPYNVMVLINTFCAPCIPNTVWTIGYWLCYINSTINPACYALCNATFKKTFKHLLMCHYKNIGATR
Procedure, shortened: (§1)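 Calcium flux is read on FLIPR over 60 sec at 488/540 nm in muscarinic-receptor CHO lines. Antagonist mode adds carbachol at EC80 after 15 min compound preincubation or with simultaneous co-application. Agonist mode adds compound alone. Cells carry Fluo-3 or Calcium 3 dye in probenecid-containing pH 7.4 buffer, 0.5% DMSO final.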

M3 muscarinic receptor = target: T3, M3 muscarinic receptor (Homo sapiens, UniProt P20309); experiment: Functional mobilization of intracellular calcium (FLIPR) in CHO cells expressing M3; settings: for EC50: CHO cells expressing M3, FLIPR calcium; for Emax: CHO; for M3 Activity: CHO cells expressing M3, FLIPR calcium assay
T3 construct: expressed in transfected cells; host or cells: CHO (M3-CHO)
Procedure, shortened: as §1

M1 muscarinic receptor = target: T4, M1 muscarinic receptor (Homo sapiens, UniProt P11229); experiment: Functional mobilization of intracellular calcium (FLIPR) in CHO cells expressing M1; settings: for EC50: CHO cells expressing M1, FLIPR calcium; for Emax: CHO; for M1 Activity: CHO cells expressing M1, FLIPR calcium assay
T4 construct: expressed in transfected cells; host or cells: CHO (M1-CHO)
T4 sequence (P11229 1-460): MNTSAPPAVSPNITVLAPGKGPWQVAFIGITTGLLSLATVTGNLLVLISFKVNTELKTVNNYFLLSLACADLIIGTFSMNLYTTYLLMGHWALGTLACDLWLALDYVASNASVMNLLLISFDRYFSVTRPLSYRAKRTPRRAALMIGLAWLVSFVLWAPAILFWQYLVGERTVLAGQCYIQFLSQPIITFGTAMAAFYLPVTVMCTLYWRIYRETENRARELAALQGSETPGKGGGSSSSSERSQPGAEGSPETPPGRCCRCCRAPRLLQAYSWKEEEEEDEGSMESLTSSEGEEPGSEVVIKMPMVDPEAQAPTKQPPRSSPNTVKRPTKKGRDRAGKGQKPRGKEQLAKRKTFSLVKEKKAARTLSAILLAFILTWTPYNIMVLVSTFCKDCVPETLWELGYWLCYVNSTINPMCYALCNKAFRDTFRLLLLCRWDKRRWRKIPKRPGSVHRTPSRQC
Procedure, shortened: as §1

[1] = 100% = maximum response obtained with the Carbachol control, read-out: M4 Efficacy
[2] = 100% = maximum response obtained with the Carbachol control, read-out: M2 Efficacy
[3] = 100% = maximum response obtained with the Carbachol control, read-out: M3 Efficacy
[4] = 100% = maximum response obtained with the Carbachol control, read-out: M1 Efficacy
[5] = 100% efficacy = maximum response obtained with the Carbachol control

T3 sequence (P20309 whole entry): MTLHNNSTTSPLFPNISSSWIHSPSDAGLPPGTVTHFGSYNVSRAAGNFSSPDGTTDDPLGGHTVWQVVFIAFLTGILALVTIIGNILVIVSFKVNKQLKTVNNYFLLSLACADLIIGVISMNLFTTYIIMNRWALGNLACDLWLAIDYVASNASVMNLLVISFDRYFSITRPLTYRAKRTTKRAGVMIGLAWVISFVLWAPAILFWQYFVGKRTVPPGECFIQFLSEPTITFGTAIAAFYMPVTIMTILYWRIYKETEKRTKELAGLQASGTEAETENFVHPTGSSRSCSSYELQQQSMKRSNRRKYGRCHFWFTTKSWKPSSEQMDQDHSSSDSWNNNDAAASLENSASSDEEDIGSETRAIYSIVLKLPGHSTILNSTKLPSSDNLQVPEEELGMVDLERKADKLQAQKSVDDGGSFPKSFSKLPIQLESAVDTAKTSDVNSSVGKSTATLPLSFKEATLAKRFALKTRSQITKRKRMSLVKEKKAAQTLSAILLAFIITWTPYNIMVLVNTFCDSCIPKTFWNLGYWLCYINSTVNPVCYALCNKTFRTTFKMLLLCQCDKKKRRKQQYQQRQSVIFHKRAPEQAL

| Structure (SMILES) | EC50 (M4 muscarinic receptor) [nM] | Emax (M4 muscarinic receptor; [1]) [%] | EC50 (M2 muscarinic receptor) [µM] | Emax (M2 muscarinic receptor; [2]) [%] | EC50 (M3 muscarinic receptor) [µM] | Emax (M3 muscarinic receptor; [3]) [%] | EC50 (M1 muscarinic receptor) [nM] | Emax (M1 muscarinic receptor; [4]) [%] | M4 Activity (M4 muscarinic receptor) | Emax (M4 muscarinic receptor; [5]) [%] | M2 Activity (M2 muscarinic receptor) | Emax (M2 muscarinic receptor; [5]) [%] | M3 Activity (M3 muscarinic receptor) | Emax (M3 muscarinic receptor; [5]) [%] | M1 Activity (M1 muscarinic receptor) | Emax (M1 muscarinic receptor; [5]) [%] |
| --- | --- | --- | --- | --- | --- | --- | --- | --- | --- | --- | --- | --- | --- | --- | --- | --- |
| CCN(C(=O)COC)[C@H]1CCC2(CCN(CCC(C)(C)C)CC2)c2ccccc21 [compound 181] | < 2000 | 25 to 100 | > 5 | < 25 | > 5 | < 25 | 2000 to 5000 | 25 to 100 |  |  |  |  |  |  |  |  |
| CC(=O)N1CCC[C@@H]1C(=O)N[C@H]1CCC2(CCN(CCC(C)(C)C)CC2)c2ccccc21 [compound 160] | < 2000 | 25 to 100 | > 5 | < 25 | > 5 | < 25 | < 2000 | 25 to 100 |  |  |  |  |  |  |  |  |
| CCC(=O)N1CCCCC1C(=O)N[C@@H]1CCC2(CCN(CCC(C)(C)C)CC2)c2ccccc21 (some centres unmarked) [compound 5] | < 2000 | 25 to 100 | 2 to 5 | < 25 | > 5 | < 25 | 2000 to 5000 | < 25 |  |  |  |  |  |  |  |  |
| COC(=O)CCCN1CCC2(CC1)C[C@H](NC(C)=O)c1ccccc12 [compound 237] |  |  |  |  |  |  |  |  | + (activity was measured to be greater than 5.0 μM) | 25 to 100 | + (activity was measured to be greater than 5.0 μM) | < 25 | + (activity was measured to be greater than 5.0 μM) | < 25 | + (activity was measured to be greater than 5.0 μM) | 25 to 100 |
| C=CCCCN1CCC2(CC1)C[C@H](NC(C)=O)c1ccccc12 [compound 242] |  |  |  |  |  |  |  |  | ++ (activity was measured to be from 2.0 μM to 5.0 μM) | 25 to 100 | + (activity was measured to be greater than 5.0 μM) | < 25 | + (activity was measured to be greater than 5.0 μM) | < 25 | + (activity was measured to be greater than 5.0 μM) | 25 to 100 |
| CC(C)(C)CCN1CCC2(CC[C@@H](NC(=O)CN3CCCCCC3=O)c3ccccc32)CC1 [compound 169] | < 2000 | 25 to 100 | < 2 | < 25 | > 5 | < 25 | < 2000 | 25 to 100 |  |  |  |  |  |  |  |  |
| CC(C)(C)CCN1CCC2(CC[C@@H](NC(=O)[C@H]3CCC(=O)N3)c3ccc(F)cc32)CC1 [compound 192] |  |  |  |  |  |  |  |  | +++ (activity was measured to be less than 2.0 μM) | 25 to 100 | + (activity was measured to be greater than 5.0 μM) | < 25 | + (activity was measured to be greater than 5.0 μM) | < 25 | + (activity was measured to be greater than 5.0 μM) | < 25 |
| CC(C)(C)CCN1CCC2(CC1)C[C@H](NC(=O)C1CC1)c1ccccc12 [compound 300] |  |  |  |  |  |  |  |  | +++ (activity was measured to be less than 2.0 μM) | < 25 | + (activity was measured to be greater than 5.0 μM) | < 25 | + (activity was measured to be greater than 5.0 μM) | < 25 | +++ (activity was measured to be less than 2.0 μM) | 25 to 100 |
| CCN(C(=O)c1cncn1C)[C@H]1CCC2(CCN(CCC(C)(C)C)CC2)c2ccccc21 [compound 128] | < 2000 | 25 to 100 | > 5 | < 25 | > 5 | < 25 | 2000 to 5000 | 25 to 100 |  |  |  |  |  |  |  |  |
| CC(=O)NCCC(=O)N[C@@H]1CCC2(CCN(CCC(C)(C)C)CC2)c2cc(F)ccc21 [compound 20] | < 2000 | 25 to 100 | < 2 | 25 to 100 | > 5 | < 25 | < 2000 | 25 to 100 |  |  |  |  |  |  |  |  |
